The term EC50 denotes the concentration at which the effect is half-maximal.

Assay [1] relates to NCI-N87 human gastric cancer cells. The assay is described as follows: Comparative study of the activity of camptothecins (CCK-8 cell killing). The class given is cell-based. On the procedure: (§1) KB oral epithelial cancer cells (purchased from: ATCC) were cultured in DMEM medium supplemented with 10% FBS; NCI-N87 human gastric cancer cells (purchased from: ATCC) were cultured in RPMI1640 medium supplemented with 10% FBS; HT29 human colon cancer cells (purchased from: ATCC) were cultured in RPMI1640 medium supplemented with 10% FBS; and BxPC-3 human pancreatic adenocarcinoma cells (purchased from: ATCC) were cultured in RPMI1640 medium supplemented with 10% FBS.
(§2) Using corresponding media described above and in cell plates, the density of KB cells was adjusted to 2×10^4/mL; the density of NCI-N87 cells was adjusted to 5×10^4/mL; the density of HT29 cells was adjusted to 5×10^4/mL, and the cells were plated onto 96-well transparent flat bottom plates, at 100 µL/well, and cultured overnight; and the density of BxPC-3 cells was adjusted to 5×10^4/mL.
(§3) Samples to be detected were diluted to 20 μM with corresponding media, then 5-fold gradient dilution was performed, and 9 concentrations were obtained. A well having cells but with no any sample added was set as the well showing maximum cell growth; and a well having no cells was set as the well of medium background. The diluted samples were added into the cell plates, at 100 μL/well, which were then incubated in a C02 incubator for 96 hours. After the incubation, CCK-8 (purchased from: DOJINDO LABORATORIES) prepared beforehand was added into the plates, at 20 μL/well, and after further 3 hours incubation in the C02 incubator, […] were read on a microplate reader.
(§4) Data obtained was fitted to a four-parameter curve using software Prism7, and equation for calculating maximum killing is: maximum killing (%)=1−(OD450 value of the well showing maximum killing—OD450 value of the well of medium background)/(OD450 value of the well showing maximum cell growth—OD450 value of the cell of medium background)[…].

Assay [2] has as its system BxPC-3 human pancreatic adenocarcinoma cells. The assay is described as above. The format is cell-based. The note with it: for Emax: read-out: Maximum Killing (%), BxPC-3, killing days 4 days. On the procedure:
as §1, §2, §3, §4

Assay [3] concerns HT29 human colon cancer cells. The assay is described as above. The class given is cell-based. The note with it: HT29, killing days 4 days. On the procedure:
as §1, §2, §3, §4

For assay [4], the system named is KB oral epithelial cancer cells. Described as above. The format is cell-based. The note with it: killing days 4 days. The protocol: as §1, §2, §3, §4
The target in assay [5] is T1, Trop-2 on BxPC-3 cells (human, UniProt P09758 27-323).
T1 construct: whole, on cells; also called Trop-2-positive BxPC-3 tumor cells
T1 sequence (looked up): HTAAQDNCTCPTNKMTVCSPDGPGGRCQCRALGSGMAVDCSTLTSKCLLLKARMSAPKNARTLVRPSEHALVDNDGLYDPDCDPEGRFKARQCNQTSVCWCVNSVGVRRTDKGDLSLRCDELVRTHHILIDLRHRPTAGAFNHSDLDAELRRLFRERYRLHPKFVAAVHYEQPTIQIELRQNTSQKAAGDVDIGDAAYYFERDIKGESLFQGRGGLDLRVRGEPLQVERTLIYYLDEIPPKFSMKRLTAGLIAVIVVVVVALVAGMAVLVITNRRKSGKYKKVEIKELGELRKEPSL
The assay is described as follows: flow cytometry, fluorescently labeled drug on BxPC-3 cells, on ice 1 h (mean ± SD, n = 2). On the procedure:
(§5) Different concentrations (1, 3, 10, 30, 100, 300, 1000, 3000, 10000, 30000, and 100000 ng/mL) of fluorescently labeled Trop2-ADC-14 and the mAb in Trop2-ADC-14 (i.e., antibody h23-12) were incubated with BxPC-3 cells (purchased from: ATCC) on ice for 1 hour in dark, and then the cells were centrifuged to remove supernatant, washed with PBS, re-suspended, and the fluorescence intensity of the drugs bound to the cells was measured with a flow cytometer (BD ACCURI C6 PLUS). The experiment was repeated once.

Assay [6] addresses T1, Trop-2 on BxPC-3 cells. The assay is described as follows: flow cytometry, fluorescently labeled antibody on BxPC-3 cells, on ice 1 h (mean ± SD, n = 2). On the procedure: as §5
A general note: In flow cytometry, cells or beads pass a laser one at a time.

[7] abbreviates: Homo sapiens, NCI-N87, 96 h, read-out: Maximum Killing (%), NCI-N87, killing days 4 days.
The mark [8] stands for this setting: Homo sapiens, BXPC-3, 96 h, BxPC-3, killing days 4 days.

Where “and” joins values, the source holds several entries; their conditions need not be identical. Equal values may be shown once. Read-outs that look alike come from different tables or passages of the source.

Turning to `CC[C@@]1(O)C(=O)OCc2c1cc1n(c2=O)Cc2c-1nc1ccc(N)c3c1c2C(C)(C)CC3` [Compound 1], the Emax in assay [1] (setting [7]) is 92.1%.

As for `CC[C@@]1(O)C(=O)OCc2c1cc1n(c2=O)Cc2c-1nc1ccc(N)c3c1c2C1CC1C3` (some centres unmarked) [Compound 7], the Emax was 87.9% in assay [1] (setting [7]) and 94.4% in assay [2] (Homo sapiens, BXPC-3, 96 h).

Take `CC[C@@]1(O)C(=O)OCc2c1cc1n(c2=O)Cc2c-1nc1ccc(N)c3c1c2CCS3` [Compound 12]: the Emax in assay [1] (setting [7]) came out at 94.9%; in assay [2] (Homo sapiens, BXPC-3, 96 h), 98.5%.

Molecule `CC[C@@]1(O)C(=O)OCc2c1cc1n(c2=O)Cc2c-1nc1ccc(N)c3c1c2C(F)(F)CS3` [Compound 13] registered an EC50 in assay [2] (setting [8]) of 1.41 nM. The Emax in assay [2] (Homo sapiens, BXPC-3, 96 h) turned out to be 98.9%.

As to `CC[C@@]1(O)C(=O)OCc2c1cc1n(c2=O)Cc2c-1nc1ccc(N)c3c1c2CC[S@+]3[O-]` [Compound 14-P1], the Emax in assay [1] (setting [7]) came out at 42.5%; in assay [2] (Homo sapiens, BXPC-3, 96 h) it was 38.8%.

On to `CC[C@@]1(O)C(=O)OCc2c1cc1n(c2=O)Cc2c-1nc1ccc(N)c3c1c2CC[S@@+]3[O-]` [Compound 14-P2], for which the Emax in assay [1] (setting [7]) was 68.4%; in assay [2] (Homo sapiens, BXPC-3, 96 h) it was 43.3%.

Molecule `CC[C@@]1(O)C(=O)OCc2c1cc1n(c2=O)Cc2c-1nc1ccc(N)c3c1c2CCO3` [Compound 14] had an EC50 in assay [2] (setting [8]) of 6.46 nM. Further, the Emax in assay [2] (Homo sapiens, BXPC-3, 96 h) stood at 84.7%.

In the case of `CC[C@@]1(O)C(=O)OCc2c1cc1n(c2=O)Cc2c-1nc1ccc(N)c3c1c2CCS3(=O)=O` [Compound 15], the Emax is 83.6% in assay [1] (setting [7]) and 87.9% in assay [2] (Homo sapiens, BXPC-3, 96 h).

For `CCC1(O)CC(=O)OCc2c1cc1n(c2=O)Cc2c-1nc1ccc(N)c3c1c2CCC3` (centres unmarked) [Compound 17], the EC50 in assay [1] (Homo sapiens, 96 h, NCI-N87, killing days 4 days, read-out: EC50) amounted to 7.43 nM. Besides, the Emax in assay [1] (Homo sapiens, 96 h, NCI-N87, killing days 4 days, read-out: Maximum Killing (%)) came to 87.6%.

For `CC[C@@]1(O)C(=O)OCc2c1cc1n(c2=O)Cc2c-1nc1cc(F)c(N)c3c1c2CCO3` [Compound 18], the Emax in assay [1] (setting [7]) was 92.9%; in assay [2] (Homo sapiens, BXPC-3, 96 h), 99.6%.

As for `CC[C@@]1(O)C(=O)OCc2c1cc1n(c2=O)Cc2c-1nc1cc(F)c(N)c3c1c2C(F)(F)CO3` [Compound 19], the Emax in assay [2] (Homo sapiens, BXPC-3, 96 h) amounted to 97.4%.

Turning to `CC[C@@]1(O)C(=O)OCc2c1cc1n(c2=O)Cc2c-1nc1cc(F)c(N)c3c1c2C(F)(F)CC3` [Compound 20], the EC50 in assay [1] (Homo sapiens, NCI-N87, 96 h, NCI-N87, killing days 4 days) was 0.059 nM; in assay [2] (setting [8]), 0.683 nM. Further, the Emax came to 93.2% in assay [1] (setting [7]) and 99.2% in assay [2] (Homo sapiens, BXPC-3, 96 h).

Regarding `CC[C@@]1(O)C(=O)OCc2c1cc1n(c2=O)Cc2c-1nc1cc(F)c(N)c3c1c2CCS3` [Compound 26], the Emax in assay [1] (setting [7]) is 93.4%; in assay [2] (Homo sapiens, BXPC-3, 96 h) it was 99.1%.

Take `CC[C@@]1(O)C(=O)OCc2c1cc1n(c2=O)Cc2c-1nc1cc(F)c(N)c3c1c2C(F)(F)CS3` [Compound 27]: the Emax in assay [1] (setting [7]) worked out at 90.6%; in assay [2] (Homo sapiens, BXPC-3, 96 h), 97.7%.

As for `CC[C@@]1(O)C(=O)OCc2c1cc1n(c2=O)Cc2c-1nc1ccc(N)c3c1c2C(F)(F)CO3` [Compound 31], the Emax in assay [1] (setting [7]) was 90.7%; in assay [2] (Homo sapiens, BXPC-3, 96 h), 93.7%.

For the molecule `CC[C@@]1(O)C(=O)OCc2c1cc1n(c2=O)Cc2c-1nc1cc(F)c(C)c3c1c2[C@@H](NC(=O)CO)CC3` [Dxd], the “Maximum Killing (%)” value in assay [1] (NCI-N87, killing days 4 days) was 92.8% and 92.7% and 94.6%; in assay [2] (BxPC-3, killing days 4 days), 91.8%; in assay [3], 87.4% and 85.4%; in assay [4], 94.7% and 94.9%. The EC50 in assay [2] (BxPC-3, killing days 4 days, read-out: EC50) was 24.3 nM; in assay [3], 127 nM and 133 nM.

On to `CC[C@@]1(O)C(=O)OCc2c1cc1n(c2=O)Cc2c-1nc1ccc(N)c3c1c2CCC3` [MWC-1, reference compound], for which the EC50 in assay [1] (Homo sapiens, NCI-N87, 96 h, NCI-N87, killing days 4 days, read-out: EC50) turned out to be 4.44 nM; in assay [1] (NCI-N87, killing days 4 days, read-out: EC50) it was 5.22 nM; in assay [3], 8.68 nM; in assay [3] (Homo sapiens, HT-29, 96 h), 9.89 nM; in assay [4] (96 h), 14.8 nM. Moreover, the Emax in assay [1] (setting [7]) amounted to 93.4%.

B1: Trop2-ADC-14 (antibody, human IgG1, kappa, V domains shown)
VH: QVQLVQSGAEVKKPGASVKVSCKASGYTFTSYWMHWVRQAPGQGLEWMGEITPSDNYGSYNQKFKGRVTITRDTSTSTAYMELSSLRSEDTAVYYCARGHGNYVSFDYWGQGTLVTVSS
VL: DIQMTQSPSSLSASVGDRVTITCRASQDISNYLNWYQQKPGKAPKLLIYYTSRLESGVPSRFSGSGSGTDFTLTISSLQPEDFATYFCQQGYTLPPYTFGQGTKLEIKR
modifications: drug-containing linker MWF-L6 (Compound 3 payload) bridged on cysteines of the reduced disulfide bonds, DAR 4.1; positions not given
notes: Antibody-drug conjugate: antibody h23-12 with MWF-L6, site-specific bridged conjugation, DAR 4.1; also called ADC 1o; h23-12 conjugated with drug-containing linker MWF-L6
B1 registered an EC50 in assay [5] of 1.3 µg/mL.

B2: Antibody h23-12 (antibody, human IgG1, kappa, V domains shown)
VH: B1 VH
VL: B1 VL
notes: Monoclonal antibody; also called the mAb in Trop2-ADC-14; anti-Trop-2 antibody h23-12
Molecule B2 displayed an EC50 in assay [6] of 1.14 µg/mL.

The record behind these values is US20250059201A1, “CAMPTOTHECIN COMPOUND AND CONJUGATE THEREOF” (priority 2021, published 2025).
